Data reported in patent US12303517B1, “Oral testosterone therapy” (Lipocine, Inc., priority 2016, dated 2025).

Assay: Single fixed dose dosing regimen examples for safety and efficacy (serum T Cmax / Cavg criteria), with food
Assay type: in vivo, human
[1] = Regimen 1, QD 500 mg T13, with food with at least 10 g of fat
[2] = Regimen 2, QD 700 mg T13, with food with at least 10 g of fat
[3] = Regimen 3, QD 750 mg T13, with food with at least 10 g of fat
[4] = Regimen 4, QD 800 mg T13, with food with at least 10 g of fat
[5] = Regimen 5, QD 900 mg T13, with food with at least 10 g of fat
[6] = Regimen 6, QD 1000 mg T13, with food with at least 10 g of fat
[7] = Regimen 7, QD 1100 mg T13, with food with at least 10 g of fat
[8] = Regimen 8, QD 1150 mg T13, with food with at least 10 g of fat
[9] = Regimen 9, QD 1250 mg T13, with food with at least 10 g of fat
[10] = Regimen 10, BID-equal dose (AM/PM) 250/250 mg T13, with food with at least 10 g of fat
[11] = Regimen 11, BID-equal dose (AM/PM) 350/350 mg T13, with food with at least 10 g of fat

CCCCCCCCCCCCC(=O)O[C@H]1CC[C@H]2[C@@H]3CCC4=CC(=O)CC[C@]4(C)[C@H]3CC[C@]12C [T13, testosterone tridecanoate]
Cavg > 300 ng/dL ≥75% patients [1]: No
Cavg > 300 ng/dL ≥80% patients [1]: No
Cmax > 1500 ng/dL <15% patients [1]: Yes
Cmax > 1500 ng/dL <20% patients [1]: Yes
Cmax > 1800 ng/dL <5% patients [1]: Yes
Cmax > 1800 ng/dL <10% patients [1]: Yes
Cmax > 2500 ng/dL <2% patients [1]: Yes
Cmax > 2500 ng/dL none of patients [1]: Yes
Cavg > 300 ng/dL ≥75% patients [2]: No
Cavg > 300 ng/dL ≥80% patients [2]: No
Cmax > 1500 ng/dL <15% patients [2]: Yes
Cmax > 1500 ng/dL <20% patients [2]: Yes
Cmax > 1800 ng/dL <5% patients [2]: Yes
Cmax > 1800 ng/dL <10% patients [2]: Yes
Cmax > 2500 ng/dL <2% patients [2]: Yes
Cmax > 2500 ng/dL none of patients [2]: Yes
Cavg > 300 ng/dL ≥75% patients [3]: Yes
Cavg > 300 ng/dL ≥80% patients [3]: No
Cmax > 1500 ng/dL <15% patients [3]: Yes
Cmax > 1500 ng/dL <20% patients [3]: Yes
Cavg > 300 ng/dL ≥75% patients [4]: Yes
Cavg > 300 ng/dL ≥80% patients [4]: Yes
Cavg > 300 ng/dL ≥75% patients [5]: Yes
Cavg > 300 ng/dL ≥80% patients [5]: Yes
Cmax > 1500 ng/dL <15% patients [5]: Yes
Cmax > 1500 ng/dL <20% patients [5]: Yes
Cmax > 1800 ng/dL <5% patients [5]: Yes
Cmax > 1800 ng/dL <10% patients [5]: Yes
Cmax > 2500 ng/dL <2% patients [5]: Yes
Cmax > 2500 ng/dL none of patients [5]: Yes
Cavg > 300 ng/dL ≥75% patients [6]: Yes
Cavg > 300 ng/dL ≥80% patients [6]: Yes
Cmax > 1500 ng/dL <15% patients [6]: Yes
Cmax > 1500 ng/dL <20% patients [6]: Yes
Cmax > 1800 ng/dL <5% patients [6]: Yes
Cmax > 1800 ng/dL <10% patients [6]: Yes
Cmax > 2500 ng/dL <2% patients [6]: Yes
Cmax > 2500 ng/dL none of patients [6]: Yes
Cavg > 300 ng/dL ≥75% patients [7]: Yes
Cavg > 300 ng/dL ≥80% patients [7]: Yes
Cmax > 1500 ng/dL <15% patients [7]: Yes
Cmax > 1500 ng/dL <20% patients [7]: Yes
Cmax > 1800 ng/dL <5% patients [7]: Yes
Cmax > 1800 ng/dL <10% patients [7]: Yes
Cmax > 2500 ng/dL <2% patients [7]: Yes
Cmax > 2500 ng/dL none of patients [7]: Yes
Cavg > 300 ng/dL ≥75% patients [8]: Yes
Cavg > 300 ng/dL ≥80% patients [8]: Yes
Cmax > 1500 ng/dL <15% patients [8]: No
Cmax > 1500 ng/dL <20% patients [8]: Yes
Cmax > 1800 ng/dL <5% patients [8]: Yes
Cmax > 1800 ng/dL <10% patients [8]: Yes
Cmax > 2500 ng/dL <2% patients [8]: Yes
Cmax > 2500 ng/dL none of patients [8]: No
Cavg > 300 ng/dL ≥75% patients [9]: Yes
Cavg > 300 ng/dL ≥80% patients [9]: Yes
Cmax > 1500 ng/dL <15% patients [9]: No
Cmax > 1500 ng/dL <20% patients [9]: No
Cmax > 1800 ng/dL <5% patients [9]: No
Cmax > 1800 ng/dL <10% patients [9]: No
Cmax > 2500 ng/dL <2% patients [9]: No
Cmax > 2500 ng/dL none of patients [9]: No
Cavg > 300 ng/dL ≥75% patients [10]: No
Cavg > 300 ng/dL ≥80% patients [10]: No
Cmax > 1500 ng/dL <15% patients [10]: Yes
Cmax > 1500 ng/dL <20% patients [10]: Yes
Cmax > 1800 ng/dL <5% patients [10]: Yes
Cmax > 1800 ng/dL <10% patients [10]: Yes
Cmax > 2500 ng/dL <2% patients [10]: Yes
Cmax > 2500 ng/dL none of patients [10]: Yes
Cavg > 300 ng/dL ≥75% patients [11]: No
Cavg > 300 ng/dL ≥80% patients [11]: No
Cmax > 1500 ng/dL <15% patients [11]: Yes
Cmax > 1500 ng/dL <20% patients [11]: Yes
Cmax > 1800 ng/dL <5% patients [11]: Yes
Cmax > 1800 ng/dL <10% patients [11]: Yes
Cmax > 2500 ng/dL <2% patients [11]: Yes
Cmax > 2500 ng/dL none of patients [11]: Yes
